In US20250215016A1, “ISOXAZOLE-HETEROCYCLIC DERIVATIVE, PHARMACEUTICAL COMPOSITION AND USE” (SHANGHAI SIMR BIOTECHNOLOGY CO., LTD, priority 2022, published 2025) one finds Ki and inhibition data, which are given here for 11 molecules.

In assay [1] the target is human α5β3γ2 receptor (α5-GABAA receptor) (Homo sapiens (Human), UniProt P18507+P31644). The assay can be described thus: Radioligand (3H-flunitrazepam) competition binding assay, BZD site. The settings on record: 3H-flunitrazepam 1 nM; HEK293 membranes expressing human α5β3γ2. The source says: α, β and γ subunits are essential for the formation of a complete functional GABAA receptor. In this example, HEK293 cell strains stably expressing human α5-GABAA receptor (comprising α5β3γ2 subunit) and α2-GABAA receptor (comprising α2β3γ2 subunit) were constructed and screened, respectively, by liposome transfection method (Felgner, P. L., et al., Proceedings of the National Academy of Sciences, 1987, 84:7413-7417). The specific subunit protein sequences are as follows: α5 subunit (protein sequence can be found in GenBank accession number: NM_000810.3); α2 subunit (protein sequence can be found in GenBank accession number: NM_000807.4); β3 subunit (protein sequence can be found in GenBank accession number: NM_000814.5); γ2 subunit (protein sequence can be found in GenBank accession number: NM_000816.3).
(§1) The above cell lines were subcultured. Amplification of α5β3γ2-HEK293 and α2β3γ2-HEK293 cells was used to test the affinity of the compounds to benzodiazepine site (BZD) of the GABAA receptor. During the passage of α5β3γ2-HEK293 cells, some of the suspended cells were spread on a glass slide pretreated with Poly-D-Lysine for electrophysiological testing.
Flunitrazepam is a non-specific reagent that binds to the BZD site efficiently. The affinity of the compounds to the BZD sites of the human α5β3γ2 and α2β3γ2 receptors can be determined by competing the compound with ^3H-flunitrazepam (isotope ^3H-labeled flunitrazepam) for binding to these two receptors.
Membrane preparation: HEK293 cells stably expressing human α5β3γ2 receptor or α2β3γ2 receptor were collected, suspended in 50 mM Tris-HCl buffer (pH=7.4), homogenized on ice by a homogenizer for 20 seconds 10 times, and centrifuged at 4° C., 1000 g for 10 min. The supernatant was collected, and the above steps were repeated. The supernatant was centrifuged (33800 g; centrifuge purchased from Thermo, rotor model: A27-8×50) at 4° C. for 60 min, and the precipitate was resuspended in Tris buffer (50 mM Tris-HCl, 10 mM MgCl2, 0.5 mM EDTA, 10% glycerol). The precipitate was the cell membrane. Protein content was determined by BCA (Bicinchoninic Acid) method (BCA kit from Pierce (Annoron)). The cell membrane was prepared into 1 ml aliquot and stored at −80° C.
Radioligand competition binding assay: the assay was carried out in a 200 μL system (96-well plate from Agilent) with 100 μL of cell membrane. The concentration of ^3H-flunitazepam (from PerkinElmer, lot: NET567250 UC) was 1 nM and the concentration of test compound was in the range 1×10^−5-10^−6 M. Flumazenil (from Tocris; lot: 1318) was used as a control. 1 μL of 2 mM flumazenil (final concentration 10 μM) was added to the Low signal control well (Low control, LC) and 1 μL of DMSO (from Sigma aldrich, lot: 472301) was added to the High signal control well (High control, HC). The final target membrane protein concentration was 5 μg/well. All test compound sample stocks were 10 mM DMSO solutions. The working concentration of the samples is to dilute all samples with DMSO to 0.2 mM, and then perform 4-fold continuous gradient dilution for a total of 8 concentration gradients. The 96-well plate was sealed with a plate sealing membrane and then incubated on a shaker at room temperature for 1 hour. Meanwhile, GF/C filter plate was soaked with a plate soaking buffer (0.3% PEI, polyethyleneimine, purchased from Sigma aldrich, model: P314, stored at 4° C.) for at least 0.5 hours. After completion of binding incubation, the cells were collected with a cell collector onto the GF/C filter plate and washed four times with a plate washing buffer (50 mM Tris-HCl, pH 7.4, stored at 4° C.). […]

For the next assay, the target named is α5-GABAA receptor (Homo sapiens (Human), UniProt P18507+P31644). In words: Whole-cell patch clamp electrophysiology, inverse regulation activity in α5β3γ2-HEK293 cells. The following applies: compound 100 nM; GABA 0.05-0.06 μM (about EC7-8); clamped at −60 mV; read-out: Inverse regulation efficiency to α5-GABAA receptor. The class given is cell-based.
Excerpt: α, β and γ subunits are essential for the formation of a complete functional GABAA receptor. […] The specific subunit protein sequences are as follows: α5 subunit (protein sequence can be found in GenBank accession number: NM_000810.3); α2 subunit (protein sequence can be found in GenBank accession number: NM_000807.4); β3 subunit (protein sequence can be found in GenBank accession number: NM_000814.5); γ2 subunit (protein sequence can be found in GenBank accession number: NM_000816.3).
as §1
The inverse regulation activity of the test drugs on α5-GABAA receptor was detected by an electrophysiological method. The specific method was as follows:
Compound concentration setting: the final concentration of the compounds used for compound screening was 100 nM. GABA concentration was 0.05-0.06 μM (about EC7-8). […] The extracellular fluid (ECS) ingredients for electrophysiology were as follows: 150 mM NaCl, 5 mM KCl, 2.5 mM CaCl2, 1 mM MgCl2, 10 mM HEPES and 10 mM glucose (pH 7.4); the electrode internal solution (ICS) formula for electrophysiology was as follows: 140 mM CsCl, 11 mM EGTA, 10 mM HEPES, 2 mM CaCl2, 1 mM MgCl2, 4 mM MgATP, 2 mM TEA (pH 7.3). The above reagents were all purchased from Sigma aldrich. GABA (γ-aminobutyric acid, from sigma aldrich, lot: A5385) powder was prepared into a stock solution with pure water and then diluted in ECS. The compound was first prepared into a 4 mM stock solution with DMSO, and then gradually diluted in corresponding concentrations of GABA-ECS. The solutions were all prepared fresh prior to electrophysiological testing.
Electrophysiological signal acquisition were performed by using EPC 10 amplifier and PatchMaster software (HEKA) or Axon 700 B amplifier and Clampex software (AXON). The recording electrode was made by drawing borosilicate glass (purchased from sutter), and has an electrode resistance of 4˜6 MΩ. Extracellular administration was carried out using ALA-VC-8PG (purchased from ALA, USA) system. A single independently grown cell was selected, and lysis was performed after the glass electrode and the cell forming a good seal, to form a whole cell mode. With the cellular membrane potential clamped at −60 mV, recording was carried out in the Gap-free mode. For the test, extracellular fluid was first applied extracellularly for about 20 seconds. After baseline (Iprebaseline) was stabilized, the extracellular fluid was switched to GABA-ECS. At this time, the current (Igaba) caused by GABA can be detected. At about 20-40 seconds, after the current stabilized, the extracellular fluid was switched to a mixed solution of the compound and GABA-ECS, until the current (Itreatment) caused by both the compound and GABA can be detected. Finally, the solution was switched to the extracellular fluid and the test was terminated after recording for 20-40 seconds.
The experimental results were analyzed using PatchMaster v2x90.1 or PatchMaster v2x90.3 software (EPC 10 amplifier) and Clampex10.6 software (Axon700B amplifier). The current value of each stage was calculated according to the average value of the stabilized current under the corresponding conditions. We defined the control current as Igaba−Iprebaseline, and the current after compound treatment as Itreatment−Iprebaseline. The inverse regulation activity of the compounds is expressed as a percentage and is calculated according to the following formula: Inverse regulation efficiency=[(Itreatment−Igaba)/(Igaba−Iprebaseline)]×100%.
On the technique in general: The patch-clamp technique gives a direct electrical read-out from membranes.

pKi: −log10 of the molar value.

Usually pKi stands for the negative decadic logarithm of the Ki, by convention in mol/L. Low values mean a high Ki, high ones a low Ki. With `CCN1CCn2c(nnc2-c2ccc(OCc3c(-c4ccc(F)cc4)noc3C)nc2)C1=O` [Compound 13, 7-ethyl-3-(6-((3-(4-fluorophenyl)-5-methylisoxazol-4-yl)methoxy)pyridin-3-yl)-6,7-dihydro-[1,2,4]triazolo[4,3-a]pyrazin-8(5H)-one], the pKi in assay [1] was 7.90. In addition, on α5-GABAA receptor, the inhibition at 0.1 µM is 43%.
In the case of `Cc1onc(-c2ccc(F)cc2)c1COc1ccc(-c2nnn3c2COCC3)cn1` [Compound 1, 3-(6-((3-(4-fluorophenyl)-5-methylisoxazol-4-yl)methoxy)pyridin-3-yl)-6,7-dihydro-4H-[1,2,3]triazolo[5,1-c][1,4]oxazine], the pKi in assay [1] is 8.92. Besides, the inhibition at 0.1 µM at α5-GABAA receptor was determined as 38%.
For `Cc1onc(-c2ccc(F)cc2)c1COc1ccc(-c2nnc3n2CCS(=O)(=O)C3)nn1` [Compound 29, 3-(6-((3-(4-fluorophenyl)-5-methylisoxazol-4-yl)methoxy)pyridazin-3-yl)-5,6-dihydro-8H-[1,2,4]triazolo[3,4-c][1,4]thiazine 7,7-dioxide], in that order: 9.11 and 45%.
In the same order, the values of `Cc1onc(-c2ccc(F)cc2)c1COc1ccc(-c2nnn3c2COCC3)nn1` [Compound 11, 3-(6-((3-(4-fluorophenyl)-5-methylisoxazol-4-yl)methoxy)pyridazin-3-yl)-6,7-dihydro-4H-[1,2,3]triazolo[5,1-c][1,4]oxazine] are 9.22 and 45%.
In the same order, the values of `Cc1onc(-c2ccc(F)cc2)c1COc1cnc(N2CCN3CCNC(=O)[C@@H]3C2)cn1` [Compound 6, (S)-8-(5-((3-(4-fluorophenyl)-5-methylisoxazol-4-yl)methoxy)pyrazin-2-yl) hexahydro-2H-pyrazino[1,2-a]pyrazin-1 (6H)-one] are 6.99 and 16%.
Turning to `Cc1onc(-c2ccc(F)cc2)c1COc1ccc(-c2cc3n(c(=O)n2)CC24CC(CN32)C4)cn1` [Compound 39, 3-(6-((3-(4-fluorophenyl)-5-methylisoxazol-4-yl)methoxy)pyridin-3-yl)-7,8-dihydro-1H,6H,9H-7,8a-methanopyrrolo[1′,2′:3,4]imidazo[1,2-c]pyrimidin-1-one], the pKi in assay [1] is 8.20. Besides, the inhibition at 0.1 µM on α5-GABAA receptor is 44%.
With `Cc1onc(-c2ccc(F)cc2)c1COc1ccc(-c2nnc3n2CCCO3)cn1` [Compound 25, 3-(6-((3-(4-fluorophenyl)-5-methylisoxazol-4-yl)methoxy)pyridin-3-yl)-6,7-dihydro-5H-[1,2,4]triazolo[3,4-b][1,3]oxazine], the pKi in assay [1] was 7.66. Also, at α5-GABAA receptor, the inhibition at 0.1 µM was determined as 50%.
Turning to `Cc1onc(-c2ccc(F)cc2)c1COc1ccc(-c2nnc3n2CCC3)nn1` [Compound 22, 4-(((6-(6,7-dihydro-5H-pyrrolo[2,1-c][1,2,4]triazol-3-yl)pyridazin-3-yl)oxy)methyl)-3-(4-fluorophenyl)-5-methylisoxazole], in assay [1], the pKi was 9.27. For the same molecule, the inhibition at 0.1 µM at α5-GABAA receptor is 50%.
For `Cc1onc(-c2ccc(F)cc2)c1COc1ccc(-c2nnc3n2CCN(C)C3=O)nn1` [Compound 14, 3-(6-((3-(4-fluorophenyl)-5-methylisoxazol-4-yl)methoxy)pyridazin-3-yl)-7-methyl-6,7-dihydro-[1,2,4]triazolo[4,3-a]pyrazin-8(5H)-one], in that order: 8.60 and 49%.
For `Cc1onc(-c2ccc(F)cc2)c1COc1ccc(N2CCn3c(C)nnc3C2)nn1` [Compound 34, 3-(4-fluorophenyl)-5-methyl-4-(((6-(3-methyl-5,6-dihydro-[1,2,4]triazolo[4,3-a]pyrazin-7(8H)-yl)pyridazin-3-yl)oxy)methyl)isoxazole], in that order: 8.61 and 39%.
In the same order, the values of `Cc1onc(-c2ccc(F)cc2)c1COc1ccc(-c2ncc3n2CCOC3)cn1` [Compound 28, 3-(6-((3-(4-fluorophenyl)-5-methylisoxazol-4-yl)methoxy)pyridin-3-yl)-5,6-dihydro-8H-imidazo[5,1-c][1,4]oxazine] are 7.48 and 42%.
